Assay results from ChEMBL document CHEMBL3046295, “Quantitative structure activity relationship (QSAR) studies of a series of 2,5-disubstituted-1,3,4-oxadiazole derivatives as biologically potential compounds” (2011).
In brackets after ≈: the same amount, converted by molar mass.

What was measured:
[1] = system: Staphylococcus aureus; test: Antibacterial activity against Staphylococcus aureus; type: functional; conditions: for MIC: Staphylococcus aureus
[2] = system: Escherichia coli; test: Antibacterial activity against Escherichia coli; type: functional; conditions: for MIC: Escherichia coli

Structure (SMILES) | -logMIC [1] | MIC [1] [µg/mL] | -logMIC [2] | MIC [2] [µg/mL]
Cc1cccc(C)c1NC(=O)CCSc1nnc(Cn2nnc3ccccc32)o1 | 6.5693 | 110 (≈ 269 µM) | 6.6107 | 100 (≈ 245 µM)
O=C(CSc1nnc(-c2cccnc2)o1)Nc1ccc(F)cc1 | 6.4046 | 130 (≈ 394 µM) | 6.4216 | 125 (≈ 378 µM)
Cc1ccc(NC(=O)CCSc2nnc(Cn3nnc4ccccc43)o2)cc1 | 6.5541 | 110 (≈ 279 µM) | 6.4986 | 125 (≈ 317 µM)
O=C(CSc1nnc(Cn2nnc3ccccc32)o1)Nc1c(Cl)cccc1Cl | 6.5778 | 115 (≈ 264 µM) | 6.7354 | 80 (≈ 184 µM)
O=C(CCSc1nnc(Cn2nnc3ccccc32)o1)Nc1ccc(Br)cc1 | 6.7868 | 75 (≈ 163 µM) | 6.6618 | 100 (≈ 218 µM)
COc1ccc(NC(=O)CCSc2nnc(Cn3nnc4ccccc43)o2)cc1 | 6.6128 | 100 (≈ 244 µM) | 6.6128 | 100 (≈ 244 µM)
Cc1cccc(C)c1NC(=O)CSc1nnc(Cn2nnc3ccccc32)o1 | 6.4816 | 130 (≈ 330 µM) | 6.5163 | 120 (≈ 304 µM)
O=C(CCSc1nnc(Cn2nnc3ccccc32)o1)Nc1ccc(Cl)cc1 | 6.5378 | 120 (≈ 289 µM) | 6.5378 | 120 (≈ 289 µM)
COc1ccc(NC(=O)CSc2nnc(-c3cccnc3)o2)cc1 | 6.3879 | 140 (≈ 409 µM) | 6.3579 | 150 (≈ 438 µM)
O=C(CCSc1nnc(Cn2nnc3ccccc32)o1)Nc1ccc(Cl)c(Cl)c1 | 6.6109 | 110 (≈ 245 µM) | 6.5731 | 120 (≈ 267 µM)
O=C(CSc1nnc(Cn2nnc3ccccc32)o1)Nc1ccc(Br)cc1 | 6.607 | 110 (≈ 247 µM) | 6.7733 | 75 (≈ 168 µM)
O=C(CSc1nnc(Cn2nnc3ccccc32)o1)Nc1ccc(F)cc1 | 6.5843 | 100 (≈ 260 µM) | 6.6549 | 85 (≈ 221 µM)
O=C(CSc1nnc(Cn2nnc3ccccc32)o1)Nc1ccc(Cl)cc1 | 6.6737 | 85 (≈ 212 µM) | 6.6031 | 100 (≈ 249 µM)
COc1ccc(NC(=O)CSc2nnc(Cn3nnc4ccccc43)o2)cc1 | 6.5008 | 125 (≈ 315 µM) | 6.5185 | 120 (≈ 303 µM)
O=C(CSc1nnc(-c2cccnc2)o1)Nc1ccc([N+](=O)[O-])cc1 | 6.3766 | 150 (≈ 420 µM) | 6.3913 | 145 (≈ 406 µM)
O=C(CSc1nnc(Cn2nnc3ccccc32)o1)Nc1ccc([N+](=O)[O-])cc1 | 6.4677 | 140 (≈ 340 µM) | 6.5531 | 115 (≈ 280 µM)
COc1ccc(NC(=O)CCSc2nnc(-c3cccnc3)o2)cc1 | 6.4053 | 140 (≈ 393 µM) | 6.5514 | 100 (≈ 281 µM)
O=C(CCSc1nnc(Cn2nnc3ccccc32)o1)Nc1ccc(F)cc1 | 6.5787 | 105 (≈ 264 µM) | 6.6968 | 80 (≈ 201 µM)

Structure (SMILES) | -logMIC [1] | MIC [1] [µg/mL] | -logMIC [2] | MIC [2] [µg/mL]
O=C(CSc1nnc(-c2cccnc2)o1)N1CCOCC1 | 6.4065 | 120 (≈ 392 µM) | 6.4443 | 110 (≈ 359 µM)
CCCNC(=O)CSc1nnc(-c2cccnc2)o1 | 6.444 | 100 (≈ 359 µM) | 6.3471 | 125 (≈ 449 µM)
Cc1ccc(NC(=O)CSc2nnc(Cn3nnc4ccccc43)o2)cc1 | 6.5006 | 120 (≈ 315 µM) | 6.5384 | 110 (≈ 289 µM)
CCCCNC(=O)CCSc1nnc(-c2cccnc2)o1 | 6.4246 | 120 (≈ 392 µM) | – | 125 (≈ 408 µM)
O=C(CCSc1nnc(-c2cccnc2)o1)Nc1c(Cl)cccc1Cl | 6.4877 | 95 (≈ 240 µM) | 6.4638 | 170 (≈ 430 µM)
O=C(CSc1nnc(-c2cccnc2)o1)Nc1ccc(Cl)cc1 | 6.41 | 135 (≈ 389 µM) | 6.5403 | 100 (≈ 288 µM)
O=C(CCSc1nnc(Cn2nnc3ccccc32)o1)Nc1c(Cl)cccc1Cl | 6.5731 | 120 (≈ 267 µM) | 6.698 | 90 (≈ 200 µM)
O=C(CCSc1nnc(-c2cccnc2)o1)Nc1ccc([N+](=O)[O-])cc1 | 6.5694 | 100 (≈ 269 µM) | 6.4902 | 120 (≈ 323 µM)
CCCNC(=O)CCSc1nnc(-c2cccnc2)o1 | 6.4445 | 115 (≈ 393 µM) | 6.4069 | 110 (≈ 376 µM)
O=C(CCSc1nnc(-c2cccnc2)o1)Nc1ccc(Cl)cc1 | 6.5575 | 100 (≈ 277 µM) | 6.2349 | 80 (≈ 222 µM)
O=C(CCSc1nnc(-c2cccnc2)o1)N1CCOCC1 | 6.3396 | 140 (≈ 437 µM) | 6.3718 | 130 (≈ 406 µM)
O=C(CSc1nnc(-c2cccnc2)o1)Nc1ccc(Br)cc1 | 6.4953 | 125 (≈ 319 µM) | 6.6379 | 90 (≈ 230 µM)
O=C(CCSc1nnc(-c2cccnc2)o1)Nc1ccc(Br)cc1 | – | 150 (≈ 370 µM) | – | 165 (≈ 407 µM)
CCCCNC(=O)CSc1nnc(-c2cccnc2)o1 | 6.4877 | 95 (≈ 325 µM) | 6.4047 | 115 (≈ 393 µM)
O=C(CSc1nnc(Cn2nnc3ccccc32)o1)Nc1ccc(Cl)c(Cl)c1 | 6.5416 | 125 (≈ 287 µM) | 6.6842 | 90 (≈ 207 µM)
O=C(CSc1nnc(-c2cccnc2)o1)N1CCCCC1 | – | 155 (≈ 509 µM) | 6.229 | 180 (≈ 591 µM)
O=C(CCSc1nnc(Cn2nnc3ccccc32)o1)Nc1ccc([N+](=O)[O-])cc1 | 6.5677 | 115 (≈ 270 µM) | 6.587 | 110 (≈ 259 µM)
O=C(CCSc1nnc(-c2cccnc2)o1)Nc1ccc(F)cc1 | 6.3061 | 170 (≈ 494 µM) | 6.3605 | 150 (≈ 436 µM)
